Measurements reported in publication PMC2566978, “Inversion of allosteric effect of arginine on N-acetylglutamate synthase, a molecular marker for evolution of tetrapods” (BMC Biochemistry, 2008).

Legend:
Experiment in all cases: NAGS activity assay, purified enzyme
Type in all cases: biochemical
zebrafish NAGS = molecular target: T1, zebrafish NAGS (Danio rerio, UniProt E7FCP8); conditions: read-out: % inhibition at 1 mM
T1 sequence (E7FCP8 40-527): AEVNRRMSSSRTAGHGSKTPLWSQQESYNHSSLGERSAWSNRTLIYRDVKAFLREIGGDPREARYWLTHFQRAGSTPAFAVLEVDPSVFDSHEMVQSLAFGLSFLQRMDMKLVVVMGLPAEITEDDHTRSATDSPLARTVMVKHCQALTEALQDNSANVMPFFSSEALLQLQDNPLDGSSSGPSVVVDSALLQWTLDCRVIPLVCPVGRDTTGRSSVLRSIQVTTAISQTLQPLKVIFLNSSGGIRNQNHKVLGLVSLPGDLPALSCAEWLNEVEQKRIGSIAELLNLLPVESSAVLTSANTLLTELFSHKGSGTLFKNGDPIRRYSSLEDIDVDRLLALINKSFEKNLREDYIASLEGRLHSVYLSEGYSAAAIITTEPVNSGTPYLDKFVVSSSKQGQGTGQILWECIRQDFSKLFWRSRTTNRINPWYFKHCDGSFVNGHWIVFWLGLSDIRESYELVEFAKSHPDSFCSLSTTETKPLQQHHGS

pufferfish NAGS = molecular target: T2, pufferfish NAGS (Takifugu rubripes, UniProt H2T4D9); conditions: read-out: % inhibition at 1 mM
T2 sequence (H2T4D9 51-529): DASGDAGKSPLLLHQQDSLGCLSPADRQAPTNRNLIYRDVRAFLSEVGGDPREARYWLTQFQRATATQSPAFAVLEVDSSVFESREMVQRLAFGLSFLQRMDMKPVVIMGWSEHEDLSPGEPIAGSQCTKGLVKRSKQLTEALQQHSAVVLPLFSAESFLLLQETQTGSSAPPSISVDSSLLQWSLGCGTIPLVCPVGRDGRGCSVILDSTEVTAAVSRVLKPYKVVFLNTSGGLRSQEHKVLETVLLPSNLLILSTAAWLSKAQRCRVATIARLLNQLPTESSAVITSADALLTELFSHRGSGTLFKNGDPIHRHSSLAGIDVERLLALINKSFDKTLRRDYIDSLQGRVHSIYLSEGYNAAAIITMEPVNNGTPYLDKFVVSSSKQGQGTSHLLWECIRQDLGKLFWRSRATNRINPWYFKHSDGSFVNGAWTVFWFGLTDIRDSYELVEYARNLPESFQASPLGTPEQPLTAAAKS

[1] = molecular target: T3, NAGS from X. laevis (African clawed frog) (Xenopus laevis, UniProt A0A8J1M136); conditions: 50 mM glutamate, 12.5 mM AcCoA, room temperature; allosteric activator
T3 construct: gene LOC108702180
T3 sequence (A0A8J1M136 31-491): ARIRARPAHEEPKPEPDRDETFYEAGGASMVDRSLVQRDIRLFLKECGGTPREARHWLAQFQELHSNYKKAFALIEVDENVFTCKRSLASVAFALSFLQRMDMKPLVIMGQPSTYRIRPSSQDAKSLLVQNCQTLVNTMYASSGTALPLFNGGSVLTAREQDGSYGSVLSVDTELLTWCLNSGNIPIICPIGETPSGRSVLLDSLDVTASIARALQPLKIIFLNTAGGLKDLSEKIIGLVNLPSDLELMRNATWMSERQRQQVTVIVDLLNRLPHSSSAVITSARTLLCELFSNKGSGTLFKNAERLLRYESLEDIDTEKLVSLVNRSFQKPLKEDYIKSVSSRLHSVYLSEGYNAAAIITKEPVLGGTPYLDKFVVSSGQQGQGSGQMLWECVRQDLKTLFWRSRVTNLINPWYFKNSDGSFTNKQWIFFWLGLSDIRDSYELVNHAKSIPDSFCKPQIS

[2] = molecular target: T4, NAGS from X. tropicalis (Western clawed frog) (Xenopus tropicalis, UniProt F6X3J6); conditions: 50 mM glutamate, 12.5 mM AcCoA, room temperature; allosteric activator
T4 sequence (F6X3J6 39-491): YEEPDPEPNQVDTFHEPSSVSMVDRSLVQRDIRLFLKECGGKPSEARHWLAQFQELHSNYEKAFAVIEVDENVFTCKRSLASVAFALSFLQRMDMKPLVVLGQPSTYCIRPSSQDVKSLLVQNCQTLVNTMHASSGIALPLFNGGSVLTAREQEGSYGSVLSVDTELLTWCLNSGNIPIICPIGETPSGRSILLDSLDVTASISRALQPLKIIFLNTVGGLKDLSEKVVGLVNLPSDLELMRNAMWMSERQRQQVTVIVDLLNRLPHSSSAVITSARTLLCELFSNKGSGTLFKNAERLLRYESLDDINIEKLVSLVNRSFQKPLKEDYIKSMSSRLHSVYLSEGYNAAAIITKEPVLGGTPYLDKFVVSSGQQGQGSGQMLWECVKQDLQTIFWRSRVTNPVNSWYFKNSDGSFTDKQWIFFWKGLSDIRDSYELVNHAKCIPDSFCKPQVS

inhibition at 1000 µM (zebrafish NAGS): ~50% | inhibition at 1000 µM (pufferfish NAGS): ~20% | % activation at 1 mM [1]: 20% | % activation at 1 mM [2]: 38%
SMILES: N=C(N)NCCC[C@H](N)C(=O)O [L-arginine]
